Assay results published in patent US7279321B2, “Methods for increasing the resistance of a host cell to aromatic carboxylic acids” (priority 2003, dated 2007).
≈ marks a conversion by molar mass, not a printed value.

Legend:
Format in all cases: cell-based
E. coli MG1655 (yhcP+) = assay: microbe, parasite or virus in culture; conditions: for MIC: Escherichia coli, MG1655, read-out: MIC, MG1655 (yhcP+); for Rank Diff: score of pigment color for MG1655 at the MIC for DPD2444 (0 = no color, 4 = full purple color); for MIC, MG1655 (yhcP+): 16 to 18 hours at 37° C., 0.01% tetrazolium violet
Protocol: (§1) Additional compounds were tested for growth inhibition of E. coli MG1655 (yhcP^+) and DPD2444 (yhcP^−) in Vogel-Bonner medium with glucose as the carbon source and with 0.01% tetrazolium violet added as an indicator of viability. A series of two-fold dilutions of each chemical was made to the wells of a clear 96-well microplate in 50 μl volume. To these wells was added 50 μl of an overnight culture in Vogel Bonner medium with glucose as a carbon source of either MG1655 or DPD2444 that had been previously diluted 500-fold into fresh medium. The plates were incubated at 37° C. without shaking for 16 to 18 hours. The purple color in each well was visually scored. A score of 4+ indicated full purple color equivalent to a no chemical control well. Scores of 3+, 2+, or 1+ indicated decreasing amounts of purple color. A score of − indicated the complete absence of color. The MIC was defined as the lowest tested concentration that gave complete absence of color. The rank of difference between strains was defined as the score of pigment color for E. coli MG1655 in wells containing the concentration of a given chemical at the MIC for DPD24444. When MG1655 had no color, the score was 0. When MG 1655 was scored at 1+, the score was 1, when scored at 2+, the score was 2, etc.

E. coli DPD2444 (yhcP−) = assay: microbe, parasite or virus in culture; conditions: for MIC: Escherichia coli, read-out: MIC, DPD2444 (yhcP−); for Fold Diff: MIC MG1655 versus MIC DPD2444; for MIC, DPD2444 (yhcP−): 16 to 18 hours at 37° C., 0.01% tetrazolium violet; for defined as substrate of the YhcP efflux pump by this genetic test: MIC difference at least 2-fold and rank at least 2
Protocol: as §1

[1] = tested on: E. coli strain DPD2444 (yhcP−, strain 16) compared with MG1655 (yhcP+, strain 14); assay: Phenotype MicroArray chemical sensitivity test (Biolog)
Protocol: To further define substrates of this efflux system, other molecules were tested with this genetic test. […] E. coli strains DPD2444 (yhcP^−) and MG1655 (yhcP^+) were tested for inhibition by a large number of chemicals at Biolog Inc. (Hayward, Calif.) using the Phenotype MicroArray™ 1-20. The basis of this technology has been described in a recent publication (Bochner et al., Genome Res., 11:1246-1255 (2001)). The chemical sensitivity test was done with 240 compounds at 4 concentrations each. These chemicals included aromatic and heterocyclic molecules, such as acriflavin, dichloro-8-hydroxyquinoline, 9-aminoacridine, fusaric acid, salicylic acid, phenylethanol, o-cresol, m-cresol, p-cresol, pentachlorophenol, coumarin, DL 3-phenyl lactic acid, and cinnamic acid. Also included were numerous antibiotics and other antimicrobial compounds, including several weak acids and other compounds that would disrupt proton flux. Cinnamic acid was the only compound of the 240 tested for which strain DPD2444 was hypersensitive as compared with MG1655. The report regarding the increased sensitivities of strain DPD2444 (strain 16) compared with MG1655 (strain 14) is quoted below in Table 6.

[2] = tested on: yhcP gene (co-transcribed with yhcQ and yhcR); assay: expression of yhcP upon treatment of E. coli cells with aromatic carboxylic acids
E. coli strain MG1655 = assay: MIC, 2-fold dilutions, Vogel-Bonner medium with 0.4% glucose; conditions: Escherichia coli, overnight at 37° C., read-out: MIC for pHCA
Description: (§2) The yhcP::TN<Kan> was introduced into E. coli strain MG1655 (obtained from Prof. Douglas Berg, Washington University School of Medicine, St. Louis, […].) by P1clr100 Cm mediated transduction to kanamycin resistance using phage lysates of E. coli strain DPD2443. One of the resultant kanamycin resistant transductants was named DPD2444.

[3] = tested on: E. coli strain DPD2444 (yhcP::TN<Kan>); assay: as above; conditions: Escherichia coli, read-out: MIC for pHCA
Description: as §2

[4] = tested on: E. coli strain DPD4057 (MG1655 with pDEW668, multicopy yhcRQP); assay: growth and CFU/ml in defined medium containing pHCA
Protocol: (§3) The plasmid pDEW668 (described in Example 2) that carries the E. coli yhcRQP pHCA efflux system was moved by transformation into E. coli strain MG1655 obtained from the American Type Culture Collection, Manassas, Va. (ATCC #700926. lot # 2660700) to form strain DPD4057. For a control, plasmid pTrcHis2TOPO®/lacZ was also put into the same host strain, making strain DPD4055. E. coli strains DPD4055 and DPD4057 were grown overnight at 37° C. in a defined medium made with 4 g/l (NH4)2SO4, 1.26 g/l KH2PO4, 2.42 g/l K2HPO4, 0.5 g/l MgSO4.7H2O, 30 mM MOPSO, pH 7.0, 1 mg/l thiamin, 50 mg/l citric acid, 7.5 mg/l CaCl2.2H2O, 25 mg/l FeSO4.7H2O, 1.95 mg/l ZnSO4.7H2O, 1.9 mg/l CuSO4.5H2O, 1.0 mg/l CoCl2.6H2O, 1.5 mg/l MnCl2.4H2O, 7.5 g/l glucose, and 25 μg/ml ampicillin. The next day, tubes with 1.0 ml of the same medium containing 7.5, 5.0, 3.3, 2.2, 1.5, or 0 g/l pHCA were inoculated with 10 μl of the overnight cultures. These tubes were grown at 37° C. on a roller drum in the dark for 1 to 2 days. At 21 hours after inoculation, the tube with 5.0 g/l pHCA inoculated with DPD4057 had visible growth. In contrast, strain DPD4055 had visible growth at 2.2 g/l pHCA, but not higher.
(§4) At 48 hours of incubation, the CFU/ml of the cultures growing in the presence of 7.5 g/l pHCA was determined by plating dilutions onto LB plates. Strain DPD4055 had 2×10^2 CFU/ml. Strain DPD4057 had 8×10^7 CFU/ml. The inoculum for each culture was 2×10^7 CFU/ml. […] In contrast, the culture carrying multicopy yhcRQP increased in CFU/ml.

[5] = tested on: E. coli strain DPD4055 (MG1655 with pTrcHis2TOPO®/lacZ); assay: as above
Protocol: as §3, §4

[6] = tested on: E. coli strain DPD3313 (MG1655 with pTrcHis2TOPO®/lacZ); assay: pHCA MIC, 2-fold dilutions, Vogel-Bonner medium with 0.4% glucose; conditions: Escherichia coli, no IPTG, overnight at 37° C.
Protocol: (§5) The pHCA MICs for E. coli strains DPD3313 and DPD3314 were determined. […] IPTG was not added to the medium because the trc promoter has substantial activity in its absence.

[7] = tested on: E. coli strain DPD3314 (MG1655 with pDEW668, multicopy yhcRQP); assay: as above
Protocol: as §5

SMILES	MIC (E. coli MG1655 (yhcP+))	Rank Diff (E. coli MG1655 (yhcP+))	MIC (E. coli DPD2444 (yhcP−))	Fold Diff (E. coli DPD2444 (yhcP−))	MIC, MG1655 (yhcP+) (E. coli MG1655 (yhcP+))	MIC, DPD2444 (yhcP−) (E. coli DPD2444 (yhcP−))	also measured
O=C(O)c1cc2ccccc2cc1O [3-hydroxy-2-naphthoic acid]	1.2 mM (≈ 226 µg/mL)	0	1.2 mM (≈ 226 µg/mL)	1	–	–	–
O=C(O)c1ccc2ccccc2c1 [2-naphthoic acid]	20 mM (≈ 3440 µg/mL)	1	10 mM (≈ 1720 µg/mL)	2	–	–	–
O=C(O)c1ccccc1-c1ccccc1 [2-biphenylcarboxylic acid]	2.5 mM (≈ 496 µg/mL)	0	2.5 mM (≈ 496 µg/mL)	1	–	–	–
COc1cccc(OC)c1O [2,6-dimethoxyphenol]	5 mM (≈ 771 µg/mL)	0	5 mM (≈ 771 µg/mL)	1	–	–	–
O=C(O)C=Cc1ccccc1 [CA, cinnamic acid]	20 mM (≈ 2960 µg/mL)	1	10 mM (≈ 1480 µg/mL)	2	–	–	difference in growth inhibition of the two strains (in words) (E. coli DPD2444 (yhcP−); MG1655 versus DPD2444): slight difference; sensitivity of strain DPD2444 as compared with MG1655 (in words) ([1]; 240 compounds at 4 concentrations each): hypersensitive; Phenotypes Lost - Slower Growth/Sensitivity: Difference ([1]; PM19, well C 11, Strain 16 (DPD2444) vs Strain 14 (MG1655)): −83; expression of the yhcP gene upon treatment of E. coli cells [2]: highly upregulated
C[S+](C)[O-] [dimethyl sulfoxide (DMSO), dimethyl sulfoxide]	–	0	–	1	20%	20%	–
O=C(O)C=Cc1ccccc1O [2-hydroxycinnamate]	–	2	–	2	20 mM (≈ 3280 µg/mL)	10 mM (≈ 1640 µg/mL)	defined as substrate of the YhcP efflux pump by this genetic test (E. coli DPD2444 (yhcP−)): substrates of the YhcP efflux pump
Oc1ccc2c(O)cccc2c1 [1,6-dihydroxynaphthalene]	0.5 mM (≈ 80.1 µg/mL)	1	0.25 mM (≈ 40 µg/mL)	2	–	–	–
O=C(O)c1cccc(O)c1O [2,3-dihydroxybenzoic acid]	10 mM (≈ 1540 µg/mL)	0	10 mM (≈ 1540 µg/mL)	1	–	–	–
O=C(O)c1ccc2cc(O)ccc2c1 [6-hydroxy-2-naphthoic acid]	20 mM (≈ 3760 µg/mL)	3	2.5 mM (≈ 470 µg/mL)	8	–	–	defined as substrate of the YhcP efflux pump by this genetic test (E. coli DPD2444 (yhcP−)): substrates of the YhcP efflux pump
C=C1CCOC1=O [Tulipalin]	–	0	–	1	0.008%	0.008%	–
O=C(O)C=Cc1ccc(O)cc1 [pHCA, para-hydroxycinnamic acid]	40 mM (≈ 6570 µg/mL)	2	10 mM (≈ 1640 µg/mL)	4	–	–	MIC (E. coli strain MG1655): 50 mM (≈ 8210 µg/mL); MIC [3]: 12 mM (≈ 1970 µg/mL); CFU/ml of culture in the presence of pHCA ([4]; 7.5 g/l pHCA, 48 hours, DPD4057, inoculum 2×10^7 CFU/ml): 8×10^7 CFU/ml; pHCA concentration with visible growth ([4]; 21 hours after inoculation, defined medium, 37° C., DPD4057, tested 7.5, 5.0, 3.3, 2.2, 1.5 g/l): 5.0 g/l; fold improvement in pHCA tolerance by multicopy expression of yhcRQP ([4]; DPD4057 versus DPD4055, 21 hours): 2.3 fold; effect of pHCA on the strain without the multicopy yhcRQP genes (in words) ([5]; 7.5 g/l pHCA, 48 hours): bactericidal effect; CFU/ml of culture in the presence of pHCA ([5]; 7.5 g/l pHCA, 48 hours, DPD4055, inoculum 2×10^7 CFU/ml): 2×10^2 CFU/ml; pHCA concentration with visible growth, but not higher ([5]; 21 hours after inoculation, defined medium, 37° C., DPD4055, tested 7.5, 5.0, 3.3, 2.2, 1.5 g/l): 2.2 g/l; defined as substrate of the YhcP efflux pump by this genetic test (E. coli DPD2444 (yhcP−)): substrates of the YhcP efflux pump; MIC [6]: 50 mM (≈ 8210 µg/mL); increased resistance to pHCA by multicopy expression of the yhcRQP operon ([7]; DPD3314 versus DPD3313): two-fold; MIC ([7]; Escherichia coli, MG1655, read-out: MIC for pHCA): 100 mM (≈ 16400 µg/mL); expression of the yhcP gene upon treatment of E. coli cells [2]: highly upregulated
O=C(O)c1cccc2ccccc12 [1-naphthoic acid]	2.5 mM (≈ 430 µg/mL)	0	2.5 mM (≈ 430 µg/mL)	1	–	–	–
Oc1ccc2ccc(O)cc2c1 [2,7-dihydroxynaphthalene]	0.62 mM (≈ 99.3 µg/mL)	1	0.31 mM (≈ 49.7 µg/mL)	2	–	–	–
O=C(O)c1cc2ccccc2cc1C(=O)O [2,3-naphthalenedicarboxylic acid]	80 mM (≈ 17300 µg/mL)	0	80 mM (≈ 17300 µg/mL)	1	–	–	–
COc1cc(C=CC(=O)O)cc(OC)c1O [3,5-dimethoxy-4-hydroxycinnamate]	–	0	–	1	10 mM (≈ 2240 µg/mL)	10 mM (≈ 2240 µg/mL)	–
O=C(O)c1ccc(C(=O)O)c2ccccc12 [1,4-naphthalenedicarboxyylic acid]	–	0	–	1	10 mM (≈ 2160 µg/mL)	10 mM (≈ 2160 µg/mL)	–
Oc1cccc2c(O)cccc12 [1,5-dihydroxynaphthalene]	0.5 mM (≈ 80.1 µg/mL)	1	0.25 mM (≈ 40 µg/mL)	2	–	–	–
O=C(O)c1ccccc1 [Benzoate]	–	0	–	1	25 mM (≈ 3050 µg/mL)	25 mM (≈ 3050 µg/mL)	–
O=C(O)C=Cc1ccc(O)c(O)c1 [3,4-dihydroxycinnamate]	–	0	–	1	0.62 mM (≈ 112 µg/mL)	0.62 mM (≈ 112 µg/mL)	–
O=C(O)c1ccccc1O [Salicylate]	–	0	–	1	100 mM (≈ 13800 µg/mL)	100 mM (≈ 13800 µg/mL)	–
COC(=O)c1ccc(O)cc1 [Methyl paraben]	3.8 mM (≈ 578 µg/mL)	0	3.8 mM (≈ 578 µg/mL)	1	–	–	–
O=C(O)c1ccc2ccccc2c1O [1-hydroxy-2-naphthoic acid]	0.62 mM (≈ 117 µg/mL)	0	0.62 mM (≈ 117 µg/mL)	1	–	–	–
